In patent publication US6610494B2, “Solid-phase activity assay for biologically active substance” (priority 1996, dated 2003):

Columns and labels:
[1] = target: T1, trypsin egg white inhibitor (ovomucoid) (Gallus gallus, UniProt P01005); assay: BEISA: competition of unlabelled proteases with biotinylated trypsin for coated inhibitor; format: binding; settings: ovomucoid-coated plate
T1 construct: purchased Sigma Chemical Co. or Fisher Scientific Co
T1 sequence (P01005 25-210): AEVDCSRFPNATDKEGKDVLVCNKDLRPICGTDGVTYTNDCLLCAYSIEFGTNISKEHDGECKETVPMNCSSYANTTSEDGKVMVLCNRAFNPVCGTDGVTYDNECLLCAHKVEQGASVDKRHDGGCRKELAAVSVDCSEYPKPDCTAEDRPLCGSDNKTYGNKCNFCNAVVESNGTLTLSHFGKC
Description: The 96-well microtiter plate (Falcon 3911) was coated with trypsin egg white inhibitor (ovomucoid, 4 ug/100 ul/well) at […] overnight. The plate was washed once using PBST {[PBS, NaCl, 9.00; Na2HPO4, 1.15; NaH2PO4, 0.23 (g/l) pH 7.2] plus 0.05% Tween-20} and 200 ul of 5% skim milk was added to each well of the plate followed by incubation at 37° C. for 2 hours. The plate was rinsed twice with PBST and 50 ul of PBS was added to each well of the plate except for those in column one where 100 ul of PBS was added. Unlabelled trypsin (50 ul of 400 ug/ml) was added to the wells of the second column followed by successive double dilutions of trypsin in wells up to and including those in column 11. Biotinylated trypsin in PBS (50 ul of 1:3000 dilution of the stock to yield approximately 2 ug/100 ul/well) was added to each well except those in the first column followed by incubation at 37° C. for 1 hour. The final volume in each well was 100 ul. The blank set of wells with no trypsin (column 1) served as the negative control while the last set of wells (column 12) with biotinylated trypsin but no unlabelled trypsin served as the positive control. […] The absorbency was then read at 405 nm using a microplate reader (Bio-Rad laboratories Inc. Mississauga, ON, Canada, model 450). […]

biotinylated α-casein = assay: Solid phase protease activity assay using biotinylated casein; format: biochemical
Description: Preparation of biotinylated casein: 12 mg α-casein in 1 ml of 0.1 M pH 7.2 phosphate-buffer saline [PBS, NaCl, 9.00; Na2HPO4, 1.15; NaH2PO4, 0.23 (g/l)] was allowed to react with 3.6 mg NHS-biotin in 150 ul DMSO for 2 hours at room temperature with gently shaking.
Assay procedure for protease activity using biotinylated casein: The microtitre plates except for the first column of 8 wells were coated using biotinylated α-casein in PBS (0.13 ug/well/100 ul) and incubated for 2 hours at 37° C. The plates were washed three times with 0.1 M PBST (PBS with 0.05% Tween-20). Different concentrations of the enzyme solution as indicated in FIGS. 12-14 (100 ul) were diluted with the appropriate buffer (see Table 2). They were added in triplicate to the wells of a plate followed by incubating in a humid atmosphere at 37° C. for 30 minutes. The plate was washed three times using PBST to terminate the protease reaction. A streptavidin-alkaline phosphatase solution (100 ul/well, 1:1000 dilution in bicarbonate buffer pH 9.5) was added to all wells in the plate except for the first column of 8 wells (as blank) and the plate was incubated at room temperature for 30 minutes. The blank set of wells contained only PBS, no added enzyme and no coating with biotinylated casein. The reaction was stopped by emptying and washing the plate six times with PBST. The pNPP substrate (100 ul/well, 1 mg/ml in 10% diethanolamine buffer pH9.8) was added to each well of the plate followed by incubation at room temperature for about 20 minutes. The absorbency was then read at 405 nm using a microplate reader (Bio-Rad laboratories, Ltd, Mississauga, ON, Canada; model 450). The best sensitivity was obtained when the maximum absorbency was around 2.0 optical density units.

[2] = optimal pH of each protease, 37° C., 30 minutes

trypsin
Concentration of trypsin that could be detected [1]: 0.1 to 1.0 µg/mL | Sensitivity: amount of enzyme required to produce a 10% decrease in maximal absorbency (biotinylated α-casein; 0.5 hour hydrolysis): 30 ng/100 ul | Hydrolysis of biotin-casein by proteases (biotinylated α-casein; [2]): Yes | Sensitivity (amount of enzyme required to hydrolyse 10% of the biotinylated α-casein) (biotinylated α-casein; [2]): 30 ng/100 ul/sample
